From paper PMC8300810, “Antibacterial Residue Excretion via Urine as an Indicator for Therapeutical Treatment Choice and Farm Waste Treatment” (Antibiotics, 2021)

How the values were obtained:
[1] = cited from earlier work
[2] = Concentration in urine compared with muscle of treated pigs; assay type: in vivo; details: Figure 4
From the text: Urine samples were obtained in parallel with muscle and blood samples gathered for the study performed by Serrano et al.. That study’s aim was to find a suitable matrix for ante mortem tests for the detection of antimicrobial compounds, which would avoid the slaughter of contaminated animals and thus the entrance of antimicrobial compounds into the food chain. The matrix should be characterized via an easy extraction procedure from living animals and a good correlation with the concentration found in muscle. […] These findings agree with those described previously by Seymour et al. for cows: urine samples from treated cows tested positive for the presence of antimicrobial residues even after the end of the withdrawal period set by the manufacturer. Moreover, this issue could also be interpreted as the occurrence of higher levels of antimicrobials in urine compared to other tissues such as muscle.
With the exception of sulfamethoxypyrydazine, concentrations described in urine were much higher than the ones described for muscle.

[3] = Antimicrobial excretion in urine of treated pigs through the withdrawal period, LC-MS/MS
Method: Each of these compounds was administered via intramuscular (IM) injection.
A total of 66 previously untreated piglets were procured at treatment onset. Starting at 40 days before administration of the compounds, they were kept on the premises of the Faculty of Veterinary Sciences at the University of Zaragoza (Zaragoza, Spain) and used in tandem for another study. […] From them, 39 were female and 27, male. During acclimatization and withdrawal periods, the piglets were fed ad libitum with a special mixed feed free of antibiotics (ARS Alendi S.A., Huesca, Spain), and water was provided from a separate, controlled water circuit. Piglets were raised in separate pens depending on the antibiotic with which they were administrated.
Urine was collected on different days within the withdrawal period determined by the respective antimicrobial drug manufacturers. It was collected from live pigs via mobilization of the animal and bladder stimulation. At pre-set time intervals, pigs were slaughtered and urine was obtained via bladder puncture; at the same time, urine was gathered from living animals subjected to the same treatment and withdrawal period. Consequently, urine was collected from 1 to 9 pigs on each day of analysis. As animals were bred in batches and slaughtered all along the withdrawal period, the number of sampled animals decreased as the withdrawal period progressed. Samples were kept aliquoted and frozen at −20 °C until analysis.
1.5 mL of urine were spiked with 100 µL of IS spiking solution. 100 µL 0.1M EDTA and 5 mL of purified water were added and mixed. 500 µL were taken and further diluted with 1500 µL of purified water. It was filtered through 0.2 µm directly into HPLC vials.
All urine samples were analysed using a SCIEX Exion LC coupled to a TripleQuad 6500+ triple quadrupole detector equipped with an Acquity UPLC® BEH C18 column (1.7 µm, 2.1 × 100 mm). The mobile phase consisted of eluent A (0.1% formic acid in water) and eluent B (0.1% formic acid in acetonitrile) at a flow rate of 0.4 mL min^−1. […] The injected volume was 5 µL. Positive electrospray ionisation was used, and analytes were detected in MRM mode by monitoring 2 transitions for each compound of interest (Table 3). Regardless of the compound analysed, the technique’s limit of detection (LoD) was 10 ppb.
For each day of the withdrawal period pre-set in this study to evaluate the behaviour of antimicrobials, 1 to 9 samples of urine coming from different animals subjected to the same treatment and withdrawal period were analysed via LC-MS/MS.
The rates of elimination (λz) of antibiotics from urine were determined via regression analysis. The corresponding half-lives of elimination(T1/2) were calculated according to the following equation:
Equation (1): Half-life of elimination where T1/2 is the half-life of elimination and λZ is the rate of elimination. (1) T1/2=Ln (2)/λz

[4] = both, Landrace × Large White, pig, in vivo

concentrations in urine compared to muscle [2]	elimination period in urine [3, 4]	half-life ([3]; both, Landrace × Large White, pig, urine, im) [h]	concentration in urine at the beginning of the withdrawal period (comparison among compounds) ([3]; pig, in vivo)	time period required to complete the excretion by urine (in words) ([3]; pig, in vivo)	total urine elimination [3, 4]	time period required to complete the excretion by urine (in words) ([3]; urine, pigs, estimated from the regression)	Structure (SMILES)	fraction of administered antibiotic eliminated in the faeces [1] [%]	fraction of administered antibiotic excreted in urine via glomerular filtration [1] [%]
much higher	over 2 months	100	highest concentrations	more than two months			CN(C)[C@@H]1C(O)=C(C(N)=O)C(=O)[C@@]2(O)C(O)=C3C(=O)c4c(O)cccc4[C@@](C)(O)[C@H]3[C@H](O)[C@@H]12 [Oxytetracycline]	40	60
					ca. 1 weeks		COc1ccc(NS(=O)(=O)c2ccc(N)cc2)nn1 [Sulfamethoxypyridazine]		
much higher					ca. 3 weeks	almost three weeks	CCN1CCN(c2cc3c(cc2F)c(=O)c(C(=O)O)cn3C2CC2)CC1 [Enrofloxacin]		
